This is an account of results in ChEMBL document CHEMBL2380198, “SAR and evaluation of novel 5H-benzo[c][1,8]naphthyridin-6-one analogs as Aurora kinase inhibitors” (Bioorg Med Chem Lett, 2013).

Molecules are shown by their SMILES. Activity calls are given as the source filed them.

Series [1] concerns the target T1, Aurora kinase B (Homo sapiens, UniProt Q96GD4). Briefly: Inhibition of aurora-B (unknown origin).
Series [2] relates to MIA PaCa-2. Briefly: Antiproliferative activity against human MIAPaCa2 cells. Type of series: functional, cell-based.
Series [3] deals with T2, Aurora kinase A (Homo sapiens, UniProt O14965).
T2 sequence (O14965 whole entry): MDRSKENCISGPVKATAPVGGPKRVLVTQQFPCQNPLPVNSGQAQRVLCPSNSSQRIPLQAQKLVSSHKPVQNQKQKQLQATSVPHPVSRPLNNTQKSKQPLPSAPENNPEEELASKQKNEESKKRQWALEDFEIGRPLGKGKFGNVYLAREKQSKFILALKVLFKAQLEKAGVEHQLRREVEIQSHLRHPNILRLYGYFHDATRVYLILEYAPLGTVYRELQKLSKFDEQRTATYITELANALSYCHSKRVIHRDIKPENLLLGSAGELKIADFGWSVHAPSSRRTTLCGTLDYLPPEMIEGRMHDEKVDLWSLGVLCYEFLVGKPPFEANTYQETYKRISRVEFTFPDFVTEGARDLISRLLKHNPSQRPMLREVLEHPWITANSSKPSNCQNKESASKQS
Briefly: Inhibition of aurora-A (unknown origin).

For series [4], the target named is Serine/threonine-protein kinase Chk2 (Homo sapiens, UniProt O96017). The series can be described thus: Inhibition of CHK2 (unknown origin).
Series [5] deals with Fibroblast growth factor receptor 1 (Homo sapiens, UniProt P11362). Briefly: Inhibition of FGFR1 (unknown origin).
In series [6] the target is LIM domain kinase 1 (Homo sapiens, UniProt P53667). The series can be described thus: Inhibition of LIMK1 (unknown origin).
The target in series [7] is Serine/threonine-protein kinase WNK3 (Homo sapiens, UniProt Q9BYP7). Briefly: Inhibition of WNK3 (unknown origin).
Series [8] has as its target Vascular endothelial growth factor receptor 3 (Homo sapiens, UniProt P35916). Briefly: Inhibition of Flt4 (unknown origin).
For series [9], the target named is Serine/threonine-protein kinase SIK1 (Homo sapiens, UniProt P57059). Briefly: Inhibition of SIK (unknown origin).
In series [10] the target is Activated CDC42 kinase 1 (Homo sapiens, UniProt Q07912). The series can be described thus: Inhibition of ACK1 (unknown origin).
In series [11] the target is Tyrosine-protein kinase HCK (Homo sapiens, UniProt P08631). Briefly: Inhibition of Hck (unknown origin).
Series [12] is described as follows: Solubility of the compound. Format: physicochemical.
Series [13] concerns the target Proto-oncogene tyrosine-protein kinase receptor Ret (Homo sapiens, UniProt P07949). Briefly: Inhibition of Ret (unknown origin).
Series [14] concerns the target T1, Aurora kinase B. Briefly: Inhibition of aurora-B in human MIAPaCa2 cells assessed as reduction of phosphorylation of histone H3. Format: cell-based, MIA PaCa-2.
The target in series [15] is T3, Mitogen-activated protein kinase 13 (Homo sapiens, UniProt O15264).
T3 sequence (O15264 whole entry): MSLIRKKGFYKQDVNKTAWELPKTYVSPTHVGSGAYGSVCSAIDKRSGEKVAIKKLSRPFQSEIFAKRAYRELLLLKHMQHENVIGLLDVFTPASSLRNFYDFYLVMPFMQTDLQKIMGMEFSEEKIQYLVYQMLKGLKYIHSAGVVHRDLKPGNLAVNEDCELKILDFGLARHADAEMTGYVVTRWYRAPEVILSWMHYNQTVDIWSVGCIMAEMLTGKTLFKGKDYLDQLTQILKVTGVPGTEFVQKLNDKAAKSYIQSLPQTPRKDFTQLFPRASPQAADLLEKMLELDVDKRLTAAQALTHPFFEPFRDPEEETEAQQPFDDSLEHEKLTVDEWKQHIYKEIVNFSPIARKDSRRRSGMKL
Briefly: Inhibition of SAPK4 (unknown origin).

In series [16] the target is High affinity nerve growth factor receptor (Homo sapiens, UniProt P04629). The series can be described thus: Inhibition of TrkA (unknown origin).
The target in series [17] is Tyrosine-protein kinase ABL2 (Homo sapiens, UniProt P42684). The series can be described thus: Inhibition of Arg (unknown origin).
Series [18] in a line: Oral bioavailability in mouse at 5 mg/kg. Format: ADME, organism-based. The following applies: in vivo.
Series [19] concerns MIA PaCa-2. Briefly: Induction of endoreduplication human MIAPaCa2 cells assessed as accumulation of cells with >4N DNA content after 24 hrs. Type of series: functional, cell-based.
Series [20] in a line: Half life in mouse at 5 mg/kg, po. The following applies: in vivo. Also on record: dose 5 mg/kg, route oral. Type of series: ADME, organism-based.
A short description of series [21]: Clearance in mouse at 5 mg/kg, iv. Format: ADME, organism-based. On the set-up: dose 5 mg/kg, route intravenous. The following applies: in vivo.
The nature of series [22]: Volume of distribution at steady state in mouse at 5 mg/kg, iv. Format: ADME, organism-based. On the set-up: dose 5 mg/kg, route intravenous. The settings on record: in vivo, read-out: Vdss.
A short description of series [23]: Cmax in mouse at 5 mg/kg, po. Format: ADME, organism-based. On the set-up: dose 5 mg/kg, route oral. The settings on record: in vivo.
Series [24] deals with Mus musculus. Briefly: Inhibition of aurora-B in mouse bone marrow assessed as reduction of phosphorylation of histone H3 at 150 and 300 mg/kg, po after 2 hrs. Format: functional.
The target of series [25] is Macrophage colony-stimulating factor 1 receptor (Homo sapiens, UniProt P07333). The series can be described thus: Inhibition of Fms (unknown origin).
For series [26], the target named is Tyrosine-protein kinase Blk (Homo sapiens, UniProt P51451). Briefly: Inhibition of Blk (unknown origin).
Series [27] can be described thus: Half life in mouse at 5 mg/kg, iv. Type of series: ADME, organism-based. On the set-up: dose 5 mg/kg, route intravenous. The settings on record: in vivo.
A short description of series [28]: AUC in mouse at 5 mg/kg, po. Type of series: ADME, organism-based. On the set-up: dose 5 mg/kg, route oral. The settings on record: plasma.
A short description of series [29]: AUC in mouse at 5 mg/kg, iv. Type of series: ADME, organism-based. On the set-up: dose 5 mg/kg, route intravenous. The settings on record: plasma.
Series [30] is described as follows: Cmax in mouse at 5 mg/kg, iv. The settings on record: in vivo. Also on record: dose 5 mg/kg, route intravenous. Type of series: ADME, organism-based.

T1 sequence (Q96GD4 whole entry): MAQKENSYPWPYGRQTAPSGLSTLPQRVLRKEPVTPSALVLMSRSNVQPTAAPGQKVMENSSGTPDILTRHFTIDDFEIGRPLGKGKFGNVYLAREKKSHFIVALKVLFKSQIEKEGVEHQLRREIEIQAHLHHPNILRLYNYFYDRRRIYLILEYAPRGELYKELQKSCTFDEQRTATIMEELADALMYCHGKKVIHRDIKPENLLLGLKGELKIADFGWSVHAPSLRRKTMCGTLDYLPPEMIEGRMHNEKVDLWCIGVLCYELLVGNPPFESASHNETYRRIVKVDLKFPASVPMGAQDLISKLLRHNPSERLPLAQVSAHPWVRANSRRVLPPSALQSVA
Chain of Serine/threonine-protein kinase Chk2 (O96017 whole entry): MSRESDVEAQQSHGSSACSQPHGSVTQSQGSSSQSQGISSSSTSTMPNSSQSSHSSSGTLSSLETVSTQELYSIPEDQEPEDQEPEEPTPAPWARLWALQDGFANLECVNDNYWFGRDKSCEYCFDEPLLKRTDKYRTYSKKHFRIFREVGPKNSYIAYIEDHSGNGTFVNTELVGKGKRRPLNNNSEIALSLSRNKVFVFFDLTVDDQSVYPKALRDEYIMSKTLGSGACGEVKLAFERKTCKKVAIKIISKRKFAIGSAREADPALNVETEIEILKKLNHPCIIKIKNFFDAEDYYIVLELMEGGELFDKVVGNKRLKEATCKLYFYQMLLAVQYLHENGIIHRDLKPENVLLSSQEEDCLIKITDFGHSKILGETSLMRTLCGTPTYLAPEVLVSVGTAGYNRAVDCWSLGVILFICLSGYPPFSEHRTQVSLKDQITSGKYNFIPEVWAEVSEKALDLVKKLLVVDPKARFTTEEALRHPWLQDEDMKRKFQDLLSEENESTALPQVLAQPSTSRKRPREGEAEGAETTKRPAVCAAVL
Chain of Proto-oncogene tyrosine-protein kinase receptor Ret (P07949 whole entry): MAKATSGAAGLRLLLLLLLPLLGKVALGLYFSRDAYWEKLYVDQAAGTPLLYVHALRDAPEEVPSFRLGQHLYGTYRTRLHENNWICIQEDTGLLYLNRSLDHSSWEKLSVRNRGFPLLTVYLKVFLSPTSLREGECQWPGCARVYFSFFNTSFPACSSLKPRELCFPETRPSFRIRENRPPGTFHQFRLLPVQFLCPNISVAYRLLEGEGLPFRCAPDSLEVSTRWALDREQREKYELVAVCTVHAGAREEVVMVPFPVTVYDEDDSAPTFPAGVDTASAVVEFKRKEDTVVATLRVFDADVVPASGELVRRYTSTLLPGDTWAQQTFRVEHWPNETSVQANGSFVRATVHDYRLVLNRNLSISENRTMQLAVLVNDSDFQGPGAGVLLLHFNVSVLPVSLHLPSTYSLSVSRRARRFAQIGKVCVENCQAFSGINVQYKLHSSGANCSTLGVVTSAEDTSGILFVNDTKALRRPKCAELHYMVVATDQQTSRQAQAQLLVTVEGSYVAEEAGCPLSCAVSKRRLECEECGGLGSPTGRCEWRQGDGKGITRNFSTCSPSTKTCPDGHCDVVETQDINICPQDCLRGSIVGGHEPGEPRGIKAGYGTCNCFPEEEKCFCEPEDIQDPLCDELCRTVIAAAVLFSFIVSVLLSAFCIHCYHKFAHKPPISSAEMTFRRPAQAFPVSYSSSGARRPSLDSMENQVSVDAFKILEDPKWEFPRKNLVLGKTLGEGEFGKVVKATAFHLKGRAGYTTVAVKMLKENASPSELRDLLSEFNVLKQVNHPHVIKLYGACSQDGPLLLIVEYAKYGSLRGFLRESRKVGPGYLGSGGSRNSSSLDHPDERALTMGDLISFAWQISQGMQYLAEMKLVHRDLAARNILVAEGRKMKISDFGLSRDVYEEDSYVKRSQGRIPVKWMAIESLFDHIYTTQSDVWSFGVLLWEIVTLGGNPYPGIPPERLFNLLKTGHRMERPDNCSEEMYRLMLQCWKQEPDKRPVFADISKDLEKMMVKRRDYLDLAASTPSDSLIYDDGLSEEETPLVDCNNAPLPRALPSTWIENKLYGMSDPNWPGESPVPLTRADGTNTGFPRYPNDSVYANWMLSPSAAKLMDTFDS
Chain of Vascular endothelial growth factor receptor 3 (P35916 whole entry): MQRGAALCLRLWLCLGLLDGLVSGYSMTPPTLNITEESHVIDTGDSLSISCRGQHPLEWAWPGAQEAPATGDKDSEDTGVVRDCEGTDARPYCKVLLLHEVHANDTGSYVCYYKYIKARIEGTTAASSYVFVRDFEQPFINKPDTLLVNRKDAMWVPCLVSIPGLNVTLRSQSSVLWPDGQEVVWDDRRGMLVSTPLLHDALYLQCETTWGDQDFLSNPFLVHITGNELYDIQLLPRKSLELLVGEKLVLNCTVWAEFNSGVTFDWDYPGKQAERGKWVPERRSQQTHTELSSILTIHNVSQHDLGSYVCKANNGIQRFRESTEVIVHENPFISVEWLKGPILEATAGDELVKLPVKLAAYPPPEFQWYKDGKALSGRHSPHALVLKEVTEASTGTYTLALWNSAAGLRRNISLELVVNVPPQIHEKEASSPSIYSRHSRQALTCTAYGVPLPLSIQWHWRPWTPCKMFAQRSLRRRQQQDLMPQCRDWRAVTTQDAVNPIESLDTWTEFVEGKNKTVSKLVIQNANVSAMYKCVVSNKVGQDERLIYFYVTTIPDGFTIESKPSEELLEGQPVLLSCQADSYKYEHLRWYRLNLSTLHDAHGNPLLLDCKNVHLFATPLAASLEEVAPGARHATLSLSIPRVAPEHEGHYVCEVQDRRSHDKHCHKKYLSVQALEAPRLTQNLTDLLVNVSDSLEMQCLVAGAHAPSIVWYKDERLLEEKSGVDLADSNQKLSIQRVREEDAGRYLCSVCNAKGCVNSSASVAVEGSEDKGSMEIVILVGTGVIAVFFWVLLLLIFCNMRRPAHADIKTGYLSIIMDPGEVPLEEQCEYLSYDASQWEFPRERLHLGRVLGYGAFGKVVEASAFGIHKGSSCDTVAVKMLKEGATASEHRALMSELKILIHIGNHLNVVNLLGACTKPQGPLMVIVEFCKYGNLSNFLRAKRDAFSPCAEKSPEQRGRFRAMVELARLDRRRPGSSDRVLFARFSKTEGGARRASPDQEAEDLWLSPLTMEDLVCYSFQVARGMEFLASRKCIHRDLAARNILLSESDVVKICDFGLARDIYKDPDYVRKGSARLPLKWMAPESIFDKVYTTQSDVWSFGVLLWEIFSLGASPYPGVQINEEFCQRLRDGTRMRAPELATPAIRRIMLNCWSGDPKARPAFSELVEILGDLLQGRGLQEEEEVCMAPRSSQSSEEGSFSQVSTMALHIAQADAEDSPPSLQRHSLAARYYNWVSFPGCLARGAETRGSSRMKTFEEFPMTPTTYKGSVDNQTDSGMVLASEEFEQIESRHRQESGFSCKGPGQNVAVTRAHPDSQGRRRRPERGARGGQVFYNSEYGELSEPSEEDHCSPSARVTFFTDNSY
Chain of LIM domain kinase 1 (P53667 whole entry, the tested form may be a part): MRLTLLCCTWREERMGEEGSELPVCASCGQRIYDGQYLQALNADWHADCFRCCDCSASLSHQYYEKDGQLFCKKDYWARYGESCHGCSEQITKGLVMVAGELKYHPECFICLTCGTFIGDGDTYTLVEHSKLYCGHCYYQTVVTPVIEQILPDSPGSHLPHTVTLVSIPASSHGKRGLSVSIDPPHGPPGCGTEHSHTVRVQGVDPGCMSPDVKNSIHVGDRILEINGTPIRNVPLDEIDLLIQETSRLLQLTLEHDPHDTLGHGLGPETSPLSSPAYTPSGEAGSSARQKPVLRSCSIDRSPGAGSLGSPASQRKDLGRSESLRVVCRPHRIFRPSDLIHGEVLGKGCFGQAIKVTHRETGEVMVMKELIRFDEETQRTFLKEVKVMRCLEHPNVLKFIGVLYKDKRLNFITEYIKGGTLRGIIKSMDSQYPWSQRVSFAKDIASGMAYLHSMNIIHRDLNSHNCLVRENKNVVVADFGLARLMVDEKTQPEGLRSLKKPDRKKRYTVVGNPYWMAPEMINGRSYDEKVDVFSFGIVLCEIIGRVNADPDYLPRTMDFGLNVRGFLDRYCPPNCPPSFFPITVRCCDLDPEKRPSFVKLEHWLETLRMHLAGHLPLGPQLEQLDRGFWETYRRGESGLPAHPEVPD
Chain of Macrophage colony-stimulating factor 1 receptor (P07333 whole entry): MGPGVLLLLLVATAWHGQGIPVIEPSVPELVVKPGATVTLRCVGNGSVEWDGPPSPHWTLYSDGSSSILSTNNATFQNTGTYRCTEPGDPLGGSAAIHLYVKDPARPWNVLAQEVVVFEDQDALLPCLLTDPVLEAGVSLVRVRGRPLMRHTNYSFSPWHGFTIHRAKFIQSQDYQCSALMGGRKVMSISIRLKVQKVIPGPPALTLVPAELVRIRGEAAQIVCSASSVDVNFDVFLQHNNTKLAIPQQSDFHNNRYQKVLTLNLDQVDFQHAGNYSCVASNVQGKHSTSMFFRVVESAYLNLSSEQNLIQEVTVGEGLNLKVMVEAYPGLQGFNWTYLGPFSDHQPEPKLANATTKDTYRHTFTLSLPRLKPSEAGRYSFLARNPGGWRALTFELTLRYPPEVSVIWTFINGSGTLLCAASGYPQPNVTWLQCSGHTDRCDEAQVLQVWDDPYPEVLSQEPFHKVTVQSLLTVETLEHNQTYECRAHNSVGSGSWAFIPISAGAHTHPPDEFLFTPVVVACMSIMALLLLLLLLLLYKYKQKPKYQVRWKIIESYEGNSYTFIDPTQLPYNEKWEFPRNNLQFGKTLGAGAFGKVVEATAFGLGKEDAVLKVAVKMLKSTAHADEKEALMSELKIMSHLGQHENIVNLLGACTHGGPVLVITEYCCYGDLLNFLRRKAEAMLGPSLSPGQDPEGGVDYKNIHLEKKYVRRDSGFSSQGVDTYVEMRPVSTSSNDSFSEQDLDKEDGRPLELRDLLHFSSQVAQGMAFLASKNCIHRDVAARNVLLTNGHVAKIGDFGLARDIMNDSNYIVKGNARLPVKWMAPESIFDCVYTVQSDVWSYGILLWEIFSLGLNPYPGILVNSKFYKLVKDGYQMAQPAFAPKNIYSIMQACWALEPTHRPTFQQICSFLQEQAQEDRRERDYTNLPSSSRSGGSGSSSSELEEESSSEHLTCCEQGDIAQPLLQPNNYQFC

As usually defined, the IC50 is the concentration that gives 50% inhibition. `O=C(Nc1ccc(Nc2ccnc3[nH]c(=O)c4ccccc4c23)cc1)c1ccc(F)cc1F`: the figures for the IC50 in [1], in [2] and in series [3] were 1 nM, 374 nM and 2 nM, respectively.
By solubility is commonly meant the concentration that dissolves in the medium under given conditions. Low readings indicate a poorly soluble substance, high ones a readily soluble substance. Take `O=C(Nc1ccc(Nc2ccnc3[nH]c(=O)c4ccccc4c23)cc1)c1ccccc1`: the IC50 turned out to be 41 nM in series [4]; 1 nM in series [1]; 329 nM in [2]; 175 nM in series [5]; 36 nM in series [6]; 401 nM in series [7]. The IC50 in series [8] was 417 nM; in series [9], 211 nM; in series [10], 149 nM; in series [11] it was 958 nM; in series [13], 15 nM; in series [14], 208 nM. Further, the values for the IC50 in series [15], in [3] and in series [16] were 411 nM, 4 nM and 819 nM, respectively. Further, the solubility in [12] is less than 1 µM.
As for `Nc1ccnc2[nH]c(=O)c3ccccc3c12`, the IC50 in series [3] worked out at 3010 nM.
In the case of `O=C(Nc1ccc(Nc2ccnc3[nH]c(=O)c4ccccc4c23)cc1)c1cccc(F)c1`, the results for the IC50 in [1], in [2] and in series [3] were 1 nM, 919 nM and 7 nM, respectively.
Consider `Nc1ccc(Nc2ccnc3[nH]c(=O)c4ccccc4c23)cc1`, for which the IC50 was found to be 174 nM in [1] and 1150 nM in series [3].
In series [3], `O=c1[nH]c2nccc(Nc3ccccc3)c2c2ccccc12` returned an IC50 of 1030 nM.
As for `O=C(Nc1ccc(Nc2ccnc3[nH]c(=O)c4ccccc4c23)cc1)c1ccc(F)c(F)c1`, the figures for the IC50 in series [1], in [2] and in [3] were 0.8 nM, 409 nM and 7 nM, respectively.
The matching figures for `O=C(Nc1ccc(Nc2ccnc3[nH]c(=O)c4ccccc4c23)cc1)c1ccc(C(F)(F)F)cc1`: 6 nM, 2710 nM and 27 nM.
As to `O=C(Nc1ccc(Nc2ccnc3[nH]c(=O)c4ccccc4c23)cc1)c1ccc(C(F)(F)F)cc1F`, the IC50 in series [2] is 4990 nM; in [3], 9 nM.
Turning to `COc1ccccc1C(=O)Nc1ccc(Nc2ccnc3[nH]c(=O)c4ccccc4c23)cc1`, the IC50 was determined as 2 nM in series [1], 2220 nM in series [2] and 7 nM in series [3].
For `O=C(Nc1ccc(Nc2ccnc3[nH]c(=O)c4ccccc4c23)cc1)c1cc(F)cc(F)c1` the same measures were 0.7 nM, 823 nM and 7 nM.
Turning to `O=C(Nc1ncc(Nc2ccnc3[nH]c(=O)c4ccccc4c23)cn1)c1ccccc1`, the IC50 in series [1] is 21 nM; in series [3], 88 nM.
As for `O=C(Nc1ccc(Nc2ccnc3[nH]c(=O)c4ccccc4c23)cc1)c1cc(F)cc(C(F)(F)F)c1`, the results for the IC50 in [2] and in series [3] were 211 nM and 9 nM, respectively.
Turning to `O=C(Nc1ccc(Nc2ccnc3[nH]c(=O)c4ccccc4c23)cc1)c1c(F)cccc1F`, the figures for the IC50 in [1], in [2] and in [3] were 0.6 nM, 293 nM and 5 nM, respectively.
In series [3], `O=c1[nH]c2ncccc2c2ccccc12` registered an IC50 of 5540 nM.
For `O=C(Nc1ccc(Nc2ccnc3[nH]c(=O)c4ccccc4c23)cc1)c1ccccc1C(F)(F)F`, the concentration for half-maximal inhibition (IC50) came out at 1 nM in series [1], 405 nM in series [2] and 4 nM in series [3].
The term bioavailability denotes dose-corrected exposure relative to a reference, in per cent. A higher bioavailability goes with good availability. What is called half-life is the time needed for the level to fall by half in the phase considered. One may read the clearance as a measure of how efficiently the substance is removed, as volume per time. The low end stands for inefficient removal, the high end for efficient removal. As usually defined, the Cmax is the peak of the concentration-time curve. As usually defined, the inhibition in vivo is the drop in the measured response relative to a control, in per cent. For orientation: AUC means concentration integrated over time. Take `O=C(Nc1ccc(Nc2ccnc3[nH]c(=O)c4ccccc4c23)cc1)c1ccc(F)cc1C(F)(F)F`: the IC50 in [17] is 863 nM; in series [4] it was 161 nM; in series [1] it was 0.4 nM; in [2] it was 170 nM; in [6], 18 nM; in series [8], 867 nM. The IC50 turned out to be 575 nM in series [25]; 959 nM in series [26]; 706 nM in series [13]; 52 nM in [14]; 0.3 nM in series [3]. Further, in [18], the bioavailability came to 41%. Also, the result in series [19] was Active. Also, the half-life in series [20] was 2.74 h; in series [27], 1.36 h. Moreover, the clearance in series [21] was 19.7 mL/min/kg. For the same molecule, in series [22], the Vd amounted to 1.48 L/kg. For the same molecule, the Cmax is 321 ng/mL in [23] and 3930 ng/mL in [30]. Besides, the inhibition in vivo at 300 mg/kg in series [24] stood at 40%. For the same molecule, the AUC stood at 1440 ng·h/mL in series [28] and 4190 ng·h/mL in series [29].
In the case of `O=C(Nc1ccc(Nc2ccnc3[nH]c(=O)c4ccccc4c23)cc1)c1cccc(C(F)(F)F)c1F`, the IC50 was determined as 1 nM in series [1], 253 nM in [2] and 7 nM in series [3].
The matching figures for `O=C(Nc1ccc(Nc2ccnc3[nH]c(=O)c4ccccc4c23)cc1)c1cccc(F)c1F`: 0.5 nM, 209 nM and 2 nM.
On to `Cc1ccc(C(=O)Nc2ccc(Nc3ccnc4[nH]c(=O)c5ccccc5c34)cc2)cc1`, for which the IC50 in [1] came to 2 nM; in [2], 2390 nM; in series [3], 3 nM.
The matching figures for `O=C(Nc1ccc(Nc2ccnc3[nH]c(=O)c4ccccc4c23)cc1)c1ccccc1F`: 2 nM, 6250 nM and 9 nM.
Regarding `O=C(Nc1ccc(Nc2ccnc3[nH]c(=O)c4ccccc4c23)nc1)c1ccccc1`, the IC50 came out at 79 nM in series [1] and 615 nM in series [3].
The matching figures for `O=c1[nH]c2nccc(Cl)c2c2ccccc12`: 1440 nM and 3010 nM.
As for `CNc1ccc(Nc2ccnc3[nH]c(=O)c4ccccc4c23)cc1`, in series [3], it took 471 nM to reach half-maximal inhibition (IC50).
Regarding `COc1cccc(F)c1C(=O)Nc1ccc(Nc2ccnc3[nH]c(=O)c4ccccc4c23)cc1`, the figures for the IC50 in series [1], in series [2] and in [3] were 1 nM, 1190 nM and 3 nM, respectively.
On to `O=C(Nc1ccc(Nc2ccnc3[nH]c(=O)c4ccccc4c23)cn1)c1ccccc1`, for which the IC50 is 13 nM in series [1] and 70 nM in [3].
Regarding `O=C(Nc1ccc(Nc2ccnc3[nH]c(=O)c4ccccc4c23)cc1)c1ccc(F)cc1`, the IC50 is 1 nM in [1], 719 nM in series [2] and 4 nM in series [3].
